Measurements taken from patent publication US12359176B2, “Engineered cells for production of indole-derivatives” (priority 2019, dated 2025).

Key:
Format in all cases: cell-based
E. coli = assay: Growth of E. coli in the presence of melatonin
Description: FIG. 2. High-concentration of melatonin decreased cell growth of E. coli. Melatonin stock-solution was made by dissolving melatonin into 70% ethanol (ETOH). The growth medium was M9 supplemented with 0.2% glucose and 2 to 7 g/L melatonin. […] The ordinate scale reflects optical density.
(§1) The E. coli Keio strains (single gene deleted strains) were inoculated into 400 μl of M9+0.2% glucose media supplemented with kanamycin (50 μg/ml) in 96 deep well-plate picking the single colonies in LB-agar plates. Then, the plate was incubated at 30° C. with 300 rpm overnight (incubated for 18-24 h). The wild type strain E. coli BW25113 was used as a control. The following day, the saturated pre-cultures were diluted 100 fold into 300 μl of M9+0.2% glucose media (and antibiotics as required) supplemented with 4.4% of ethanol or 4.4% of ethanol and 4.4 g/L of melatonin so that the resulting final concentration would be 4% of ethanol and 4 g/L of melatonin in 96 well MTP plate. In case of the RBS library of yhjV, screening was performed at 5 g/L of melatonin instead of 4 g/L. Then, the culture plates were incubated in Growth Profiler (Enzyscreen, Heemstede, Netherland) at 30° C. and 250 RPM for 48 h with constant monitoring of the growth by taking picture in every 20 minutes interval. Using the GP software (GP960Viewer version 1.0.0.4, Enzyscreen, Heemstede, Netherland), the pictures data was converted into digital OD600 nm values and the growth curves were compared.
In order to elucidate whether melatonin production at high titers is toxic to E. coli, we tested the growth of E. coli strain in the presence of different concentrations of melatonin. Melatonin was externally added into M9 medium supplemented with 0.2% glucose and the growth curves were monitored. […] Compared to the control, the biomass yield decreased ˜30% at 2 g/L melatonin, and further decreased about 30% at 7 g/l melatonin.

[1] = tested on: E. coli Keio strains (single gene deleted strains); assay: Growth Profiler growth test of transporter knockout (Keio) strains in 4 g/L melatonin; details: 4% ethanol, M9+0.2% glucose, vs BW25113 control strain
Description: as §1
To identify any melatonin-specific native transporters in E. coli, an E. coli knockout library of 430 strains was screened, testing cell growth in the presence of 4 g/L (or 5 g/L) melatonin using the Growth Profiler. In such a screen, improved growth parameters (especially higher growth rate and/or lower lag time) compared to wild-type strain can be expected in case an importer is knocked-out, whereas decreased growth parameters can be expected in case an exporter is knocked-out (FIG. 3).
The growth curves of the five selected transporter candidate deletion strains (target candidate knocked-out Keio strains) were accessed after running growth profiler experiments as mentioned above.

[2] = tested on: E. coli YhjV knockout (HMP3406_YhjV KO); assay: Growth test of yhjV knockout strain in tryptophan; details: 1 mM tryptophan, M9 with 0.2% glucose, 30° C., 48 h
Description: This Example describes testing the influence of YhjV on the uptake of amino acids. The growth test was performed using M9 medium supplemented with 0.2% glucose and 1 mM tryptophan, as well as appropriate antibiotics (100 mg/L ampicillin or 50 mg/L kanamycin). The growth curves were monitored with Growth Profiler (Enzyscreen, Heemstede, Netherland) at 30° C. and 250 RPM for 48 h.
We first tested how YhjV transporter affects the growth of E. coli tryptophan. We followed the growth curves of E. coli wild type BW25113 (HMP0_wt), YhjV knockout (HMP3406_YhjV KO) and YhjV overexpression (HMP3405_YhjV O. E., made by transforming pHM635 into HMP0) in M9 medium containing 0.2% glucose supplemented with 1 mM tryptophan.

SMILES | biomass yield decrease compared to the control (E. coli; 2 g/L melatonin, M9 medium with 0.2% glucose, control contains 4% ETOH) | further biomass yield decrease (E. coli; 7 g/l melatonin, M9 medium with 0.2% glucose, control contains 4% ETOH) | effect on E. coli growth (E. coli; high concentrations of melatonin (2 to 7 g/L), M9 with 0.2% glucose) | growth of acrB deletion strain [1] | growth of argO deletion strain [1] | growth of garP deletion strain [1] | growth of lysP deletion strain [1] | growth of yhjV deletion strain [1] | growth of YhjV knockout compared to the wild type [2]
COc1ccc2[nH]cc(CCNC(C)=O)c2c1 [melatonin] | about 30% | about 30% | inhibited E. coli growth | no growth at all | reduced growth rates | longer lag time and reduced growth rate | reduced growth rates | longer lag time and reduced growth rate | 
N[C@@H](Cc1c[nH]c2ccccc12)C(=O)O [tryptophan, L-tryptophan] |  |  |  |  |  |  |  |  | much lower biomass yield
